# From the supplement of paper PMC10307832
# Legend:
# Experiment in all cases: relative viability (nuclei count vs DMSO), 5 days (fraction); higher = more cells survive
# Alisertib + Pictilisib = compound: COc1cc(Nc2ncc3c(n2)-c2ccc(Cl)cc2C(c2c(F)cccc2OC)=NC3)ccc1C(=O)O [Alisertib] + CS(=O)(=O)N1CCN(Cc2cc3nc(-c4cccc5[nH]ncc45)nc(N4CCOCC4)c3s2)CC1 [Pictilisib] (partner 1 µM)
# Summary of the method: (§1)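 Cells from lung cancer lines were seeded into 1536-well plates and, one day later, dosed by pin tool. Treatments were either a single drug or a fixed dose of an anchor drug with five library-drug doses (not always all listed) in √10 steps. After 5 days, nuclei were stained in a one-step fixation (final 0.05% Triton X-100, 1% formaldehyde, 1 ug/ml Hoechst) and counted on 4× images, and relative viability is the treated-to-vehicle nuclei ratio, as the median of duplicate plates.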
# Alisertib + Decitabine = compound: COc1cc(Nc2ncc3c(n2)-c2ccc(Cl)cc2C(c2c(F)cccc2OC)=NC3)ccc1C(=O)O [Alisertib] + Nc1ncn([C@H]2C[C@H](O)[C@@H](CO)O2)c(=O)n1 [Decitabine] (partner 2 µM)
# Summary of the method: as §1
# Alisertib + Crizotinib = compound: COc1cc(Nc2ncc3c(n2)-c2ccc(Cl)cc2C(c2c(F)cccc2OC)=NC3)ccc1C(=O)O [Alisertib] + C[C@@H](Oc1cc(-c2cnn(C3CCNCC3)c2)cnc1N)c1c(Cl)ccc(F)c1Cl [Crizotinib] (partner 1 µM)
# Summary of the method: as §1
# Alisertib + Alpelisib = compound: COc1cc(Nc2ncc3c(n2)-c2ccc(Cl)cc2C(c2c(F)cccc2OC)=NC3)ccc1C(=O)O [Alisertib] + Cc1nc(NC(=O)N2CCC[C@H]2C(N)=O)sc1-c1ccnc(C(C)(C)C(F)(F)F)c1 [Alpelisib] (partner 2 µM)
# Summary of the method: as §1
# Alisertib + Phenformin = compound: COc1cc(Nc2ncc3c(n2)-c2ccc(Cl)cc2C(c2c(F)cccc2OC)=NC3)ccc1C(=O)O [Alisertib] + N=C(N)NC(=N)NCCc1ccccc1 [Phenformin] (partner 250 µM)
# Summary of the method: as §1
# Alisertib + Lapatinib = compound: COc1cc(Nc2ncc3c(n2)-c2ccc(Cl)cc2C(c2c(F)cccc2OC)=NC3)ccc1C(=O)O [Alisertib] + CS(=O)(=O)CCNCc1ccc(-c2ccc3ncnc(Nc4ccc(OCc5cccc(F)c5)c(Cl)c4)c3c2)o1 [Lapatinib] (partner 2 µM)
# Summary of the method: as §1
# Alisertib + Olaparib = compound: COc1cc(Nc2ncc3c(n2)-c2ccc(Cl)cc2C(c2c(F)cccc2OC)=NC3)ccc1C(=O)O [Alisertib] + O=C(c1cc(Cc2n[nH]c(=O)c3ccccc23)ccc1F)N1CCN(C(=O)C2CC2)CC1 [Olaparib] (partner 8 µM)
# Summary of the method: as §1
# Alisertib + Navitoclax = compound: COc1cc(Nc2ncc3c(n2)-c2ccc(Cl)cc2C(c2c(F)cccc2OC)=NC3)ccc1C(=O)O [Alisertib] + CC1(C)CCC(c2ccc(Cl)cc2)=C(CN2CCN(c3ccc(C(=O)NS(=O)(=O)c4ccc(N[C@H](CCN5CCOCC5)CSc5ccccc5)c(S(=O)(=O)C(F)(F)F)c4)cc3)CC2)C1 [Navitoclax] (partner 0.5 µM)
# Summary of the method: as §1
# Alisertib + Foretinib = compound: COc1cc(Nc2ncc3c(n2)-c2ccc(Cl)cc2C(c2c(F)cccc2OC)=NC3)ccc1C(=O)O [Alisertib] + COc1cc2c(Oc3ccc(NC(=O)C4(C(=O)Nc5ccc(F)cc5)CC4)cc3F)ccnc2cc1OCCCN1CCOCC1 [Foretinib] (partner 0.25 µM)
# Summary of the method: as §1
# Alisertib + Linsitinib = compound: COc1cc(Nc2ncc3c(n2)-c2ccc(Cl)cc2C(c2c(F)cccc2OC)=NC3)ccc1C(=O)O [Alisertib] + C[C@]1(O)C[C@@H](c2nc(-c3ccc4ccc(-c5ccccc5)nc4c3)c3c(N)nccn32)C1 [Linsitinib] (partner 1 µM)
# Summary of the method: as §1
# Alisertib = compound: COc1cc(Nc2ncc3c(n2)-c2ccc(Cl)cc2C(c2c(F)cccc2OC)=NC3)ccc1C(=O)O [Alisertib]
# Summary of the method: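 Viability was defined as treated-well nuclei divided by vehicle-well nuclei, with the median taken over replicate plates. Cells from lung cancer lines sat overnight at 37 °C in 1536-well plates, received five √10-spaced library-drug doses by pinning on vehicle-anchored plates, and grew 5 days without medium change before one-step fixation, permeabilisation and Hoechst staining, 4× imaging and MetaXpress nuclear counts. Only plates with control CV under 25% and at least one doubling were kept.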
# Alisertib + Bortezomib = compound: COc1cc(Nc2ncc3c(n2)-c2ccc(Cl)cc2C(c2c(F)cccc2OC)=NC3)ccc1C(=O)O [Alisertib] + CC(C)C[C@H](NC(=O)[C@H](Cc1ccccc1)NC(=O)c1cnccn1)B(O)O [Bortezomib] (partner 0.002 µM)
# Summary of the method: as §1
cell line,measurement,setting,value
A549,relative viability,Alisertib + Pictilisib; first compound 0.005 µM,0.423
same,relative viability,Alisertib + Pictilisib; first compound 0.01581 µM,0.123
same,relative viability,Alisertib + Pictilisib; first compound 0.05 µM,0.051
same,relative viability,Alisertib + Pictilisib; first compound 0.1581 µM,0.0422
same,relative viability,Alisertib + Pictilisib; first compound 0.5 µM,0.0618
same,relative viability,Alisertib + Decitabine; first compound 0.005 µM,0.247
same,relative viability,Alisertib + Decitabine; first compound 0.01581 µM,0.207
same,relative viability,Alisertib + Decitabine; first compound 0.05 µM,0.125
same,relative viability,Alisertib + Decitabine; first compound 0.1581 µM,0.0435
same,relative viability,Alisertib + Decitabine; first compound 0.5 µM,0.0399
same,relative viability,Alisertib + Crizotinib; first compound 0.005 µM,0.611
same,relative viability,Alisertib + Crizotinib; first compound 0.01581 µM,0.197
same,relative viability,Alisertib + Crizotinib; first compound 0.05 µM,0.0682
same,relative viability,Alisertib + Crizotinib; first compound 0.1581 µM,0.0571
same,relative viability,Alisertib + Crizotinib; first compound 0.5 µM,0.0624
same,relative viability,Alisertib + Alpelisib; first compound 0.005 µM,0.531
same,relative viability,Alisertib + Alpelisib; first compound 0.01581 µM,0.333
same,relative viability,Alisertib + Alpelisib; first compound 0.05 µM,0.144
same,relative viability,Alisertib + Alpelisib; first compound 0.1581 µM,0.059
same,relative viability,Alisertib + Alpelisib; first compound 0.5 µM,0.0557
same,relative viability,Alisertib + Phenformin; first compound 0.005 µM,0.152
same,relative viability,Alisertib + Phenformin; first compound 0.01581 µM,0.0871
same,relative viability,Alisertib + Phenformin; first compound 0.05 µM,0.0611
same,relative viability,Alisertib + Phenformin; first compound 0.1581 µM,0.0311
same,relative viability,Alisertib + Phenformin; first compound 0.5 µM,0.0352
same,relative viability,Alisertib + Lapatinib; first compound 0.005 µM,0.812
same,relative viability,Alisertib + Lapatinib; first compound 0.01581 µM,0.235
same,relative viability,Alisertib + Lapatinib; first compound 0.05 µM,0.148
same,relative viability,Alisertib + Lapatinib; first compound 0.1581 µM,0.0742
same,relative viability,Alisertib + Lapatinib; first compound 0.5 µM,0.0628
same,relative viability,Alisertib + Olaparib; first compound 0.005 µM,0.317
same,relative viability,Alisertib + Olaparib; first compound 0.01581 µM,0.305
same,relative viability,Alisertib + Olaparib; first compound 0.05 µM,0.0782
same,relative viability,Alisertib + Olaparib; first compound 0.1581 µM,0.079
same,relative viability,Alisertib + Olaparib; first compound 0.5 µM,0.0413
same,relative viability,Alisertib + Navitoclax; first compound 0.005 µM,1.1
same,relative viability,Alisertib + Navitoclax; first compound 0.01581 µM,0.642
same,relative viability,Alisertib + Navitoclax; first compound 0.05 µM,0.215
same,relative viability,Alisertib + Navitoclax; first compound 0.1581 µM,0.0692
same,relative viability,Alisertib + Navitoclax; first compound 0.5 µM,0.0461
same,relative viability,Alisertib + Foretinib; first compound 0.005 µM,0.977
same,relative viability,Alisertib + Foretinib; first compound 0.01581 µM,0.492
same,relative viability,Alisertib + Foretinib; first compound 0.05 µM,0.209
same,relative viability,Alisertib + Foretinib; first compound 0.1581 µM,0.0402
same,relative viability,Alisertib + Foretinib; first compound 0.5 µM,0.0374
same,relative viability,Alisertib + Linsitinib; first compound 0.005 µM,0.556
same,relative viability,Alisertib + Linsitinib; first compound 0.01581 µM,0.414
same,relative viability,Alisertib + Linsitinib; first compound 0.05 µM,0.139
same,relative viability,Alisertib + Linsitinib; first compound 0.1581 µM,0.0745
same,relative viability,Alisertib + Linsitinib; first compound 0.5 µM,0.0473
same,relative viability,Alisertib; 0.005 µM,0.877
same,relative viability,Alisertib; 0.01581 µM,0.633
same,relative viability,Alisertib; 0.05 µM,0.331
same,relative viability,Alisertib; 0.1581 µM,0.0691
same,relative viability,Alisertib; 0.5 µM,0.0535
EBC-1,relative viability,Alisertib + Pictilisib; first compound 0.005 µM,0.394
same,relative viability,Alisertib + Pictilisib; first compound 0.01581 µM,0.282
same,relative viability,Alisertib + Pictilisib; first compound 0.05 µM,0.112
same,relative viability,Alisertib + Pictilisib; first compound 0.1581 µM,0.158
same,relative viability,Alisertib + Pictilisib; first compound 0.5 µM,0.121
same,relative viability,Alisertib + Crizotinib; first compound 0.005 µM,0.177
same,relative viability,Alisertib + Crizotinib; first compound 0.01581 µM,0.189
same,relative viability,Alisertib + Crizotinib; first compound 0.05 µM,0.174
same,relative viability,Alisertib + Crizotinib; first compound 0.1581 µM,0.139
same,relative viability,Alisertib + Crizotinib; first compound 0.5 µM,0.155
same,relative viability,Alisertib + Alpelisib; first compound 0.005 µM,0.578
same,relative viability,Alisertib + Alpelisib; first compound 0.01581 µM,0.597
same,relative viability,Alisertib + Alpelisib; first compound 0.05 µM,0.272
same,relative viability,Alisertib + Alpelisib; first compound 0.1581 µM,0.225
same,relative viability,Alisertib + Alpelisib; first compound 0.5 µM,0.153
same,relative viability,Alisertib + Lapatinib; first compound 0.005 µM,0.224
same,relative viability,Alisertib + Lapatinib; first compound 0.01581 µM,0.21
same,relative viability,Alisertib + Lapatinib; first compound 0.05 µM,0.188
same,relative viability,Alisertib + Lapatinib; first compound 0.1581 µM,0.178
same,relative viability,Alisertib + Lapatinib; first compound 0.5 µM,0.152
same,relative viability,Alisertib + Bortezomib; first compound 0.005 µM,0.537
same,relative viability,Alisertib + Bortezomib; first compound 0.01581 µM,0.467
same,relative viability,Alisertib + Bortezomib; first compound 0.05 µM,0.239
same,relative viability,Alisertib + Bortezomib; first compound 0.1581 µM,0.186
same,relative viability,Alisertib + Bortezomib; first compound 0.5 µM,0.162
same,relative viability,Alisertib + Olaparib; first compound 0.005 µM,0.609
same,relative viability,Alisertib + Olaparib; first compound 0.01581 µM,0.478
same,relative viability,Alisertib + Olaparib; first compound 0.05 µM,0.195
same,relative viability,Alisertib + Olaparib; first compound 0.1581 µM,0.216
same,relative viability,Alisertib + Olaparib; first compound 0.5 µM,0.132
same,relative viability,Alisertib + Navitoclax; first compound 0.005 µM,0.298
same,relative viability,Alisertib + Navitoclax; first compound 0.01581 µM,0.278
same,relative viability,Alisertib + Navitoclax; first compound 0.05 µM,0.131
same,relative viability,Alisertib + Navitoclax; first compound 0.1581 µM,0.17
same,relative viability,Alisertib + Navitoclax; first compound 0.5 µM,0.167
same,relative viability,Alisertib + Foretinib; first compound 0.005 µM,0.109
same,relative viability,Alisertib + Foretinib; first compound 0.01581 µM,0.103
same,relative viability,Alisertib + Foretinib; first compound 0.05 µM,0.08
same,relative viability,Alisertib + Foretinib; first compound 0.1581 µM,0.0764
same,relative viability,Alisertib + Foretinib; first compound 0.5 µM,0.0821
same,relative viability,Alisertib + Linsitinib; first compound 0.005 µM,0.678
same,relative viability,Alisertib + Linsitinib; first compound 0.01581 µM,0.731
same,relative viability,Alisertib + Linsitinib; first compound 0.05 µM,0.211
same,relative viability,Alisertib + Linsitinib; first compound 0.1581 µM,0.179
same,relative viability,Alisertib + Linsitinib; first compound 0.5 µM,0.147
same,relative viability,Alisertib; 0.005 µM,0.875
same,relative viability,Alisertib; 0.01581 µM,0.806
same,relative viability,Alisertib; 0.05 µM,0.373
same,relative viability,Alisertib; 0.1581 µM,0.183
same,relative viability,Alisertib; 0.5 µM,0.162
